Experimental data from article PMC7887068 (Peptides, 2021).
Where two headings read alike, the source gives them in different places. Blank lines part the entries; values can stand above or below the molecule they belong to.

Experiments:
ACE2 = settings: read-out: half maximum inhibitory concentration (IC50); cited from earlier work
[1] = biological target: T1, recombinant human ACE2 (rhACE2) (Homo sapiens, UniProt Q9BYF1); experiment: MLN-4760 inhibition of rhACE2 metabolism of angiotensin peptides; type: biochemical
T1 sequence (Q9BYF1 18-740 limits assumed): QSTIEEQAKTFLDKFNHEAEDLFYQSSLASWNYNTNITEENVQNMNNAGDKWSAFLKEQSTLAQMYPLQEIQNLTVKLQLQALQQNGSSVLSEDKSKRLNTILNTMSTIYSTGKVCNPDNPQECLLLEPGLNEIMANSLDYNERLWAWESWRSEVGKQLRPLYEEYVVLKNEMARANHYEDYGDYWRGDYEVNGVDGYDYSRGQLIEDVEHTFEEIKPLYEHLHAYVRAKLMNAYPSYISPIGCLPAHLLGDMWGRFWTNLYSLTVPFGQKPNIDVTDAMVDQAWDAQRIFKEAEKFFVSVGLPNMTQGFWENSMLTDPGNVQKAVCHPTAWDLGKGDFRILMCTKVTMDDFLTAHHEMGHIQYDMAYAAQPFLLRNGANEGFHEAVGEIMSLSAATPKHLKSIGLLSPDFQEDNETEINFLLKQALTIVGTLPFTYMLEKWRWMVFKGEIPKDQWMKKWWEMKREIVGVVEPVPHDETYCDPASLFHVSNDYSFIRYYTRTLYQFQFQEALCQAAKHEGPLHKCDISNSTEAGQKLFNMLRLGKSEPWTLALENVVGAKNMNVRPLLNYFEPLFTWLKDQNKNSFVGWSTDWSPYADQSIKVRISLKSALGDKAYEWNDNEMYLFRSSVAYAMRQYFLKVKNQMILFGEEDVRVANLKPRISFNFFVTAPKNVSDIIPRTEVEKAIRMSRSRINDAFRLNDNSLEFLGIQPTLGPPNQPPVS

[2] = tested on: Human neutrophil collagenase (matrix metalloproteinase 8, MMP8); settings: 10 mM zinc; activity increases up to 100 μM zinc; cited from earlier work
[3] = biological target: T1, recombinant human ACE2 (rhACE2); experiment: Zinc inhibition of rhACE2 metabolism of Ang II to Ang 1–7; type: biochemical
[4] = biological target: T1, recombinant human ACE2 (rhACE2); settings: pH 7.0
[5] = tested on: CC[C@H](C)[C@H](NC(=O)[C@H](Cc1ccc(O)cc1)NC(=O)[C@@H](NC(=O)[C@H](CCCNC(=N)N)NC(=O)[C@@H](N)CC(=O)O)C(C)C)C(=O)N[C@@H](Cc1cnc[nH]1)C(=O)N1CCC[C@H]1C(=O)N[C@@H](Cc1ccccc1)C(=O)O; type: biochemical, human; settings: other: average of the two series (Tables 2 and 3), Ang II to Ang 1–7

inhibition of metabolism of Ang II to Ang 1–7 ([1]; 1 μM MLN-4760): nearly all
inhibition at 1 µM ([1]; read-out: inhibition of rhACE2 activity): ~90%
Molecule: CC(C)C[C@H](N[C@@H](Cc1cncn1Cc1cc(Cl)cc(Cl)c1)C(=O)O)C(=O)O [MLN-4760]
IC50 (ACE2): 0.0004 µM

Molecule: CC(=O)[O-].CC(=O)[O-].[Zn+2] [zinc, zinc acetate]
collagenase activity remaining [2]: ~ 20%
inhibition of ACE2 activity ([3]; 1 mM zinc): completely
IC50 ([3]; read-out: IC50 for inhibition of rhACE2 metabolism of Ang II to Ang 1–7, zinc 1 to 1000 μM, 100 μM Ang II, rhACE2 48.4 ng/ml (569 pM), 50 mM Hepes, 100 mM NaCl, pH 7.0, 30 min, 37°C, mean ± SEM, n=2): 69.1 ± 1.1 µM
Log IC50 for inhibition of rhACE2 metabolism of Mca-APK(dnp) ([4]; HEPES buffer): −3.77
Log IC50 for inhibition of rhACE2 metabolism of Mca-APK(dnp) ([4]; MES buffer): −3.85
Log IC50 for inhibition of rhACE2 metabolism of Mca-APK(dnp) ([4]; Tris buffer): −3.82

Molecule: recombinant human ACE2 (rhACE2) (Homo sapiens)
Km [5]: 8.47 µM
kcat/Km [5]: 1.02 μM^−1,sec^−1
